Measured values published in patent publication US4568490A, “Aminopropylaminobleomycin derivatives and process for preparation thereof” (Zaidan Hojin Biseibutsu Kagaku Kenkyu Kai, priority 1981, dated 1986).

Experiments:
ICR mice = assay: Pulmonary toxicity (pulmonary fibrosis) in mice, intratracheal instillation; assay type: in vivo; settings: 16 μg/50 μl/mouse intratracheally, sacrificed 4 weeks after instillation; for Grade: total score of pulmonary fibrosis/total number of samples: score 0-6 points
Method: Male 15 weeks old ICR mice were used. Sixteen μg/50 μl/mouse of each test sample was intratracheally instilled. The mice were sacrificed 4 weeks after instillation to examine the incidence and grade of pulmonary fibrosis. The evaluation was made by comparing the number of administered mice suffering from pulmonary fibrosis and the grade of the disease.
In Tables 4A and 4B, the grade was numerically rated as follows:
1 point: Accumulation of exudate in pulmonary alveoli and fibrosis-like change in alveolar septum.
2 points: Fibrosis in several areas.
4 points: Scattered fibrosis.
6 points: Fibrosis in more than two-thirds of the total area.

[1] = tested on: Mycobacterium smegmatis ATCC 607; assay: Antimicrobial activity, agar plate-cylinder method; assay type: cell-based; settings: Cu-free form; bleomycin A2 (Cu-free form) standard assumed 1,000 mcg/mg
Method: (§1) The activity was assayed against the above test microorganisms by the method of agar plate-cylinder, assuming the potency of bleomycin A2 (Cu-free form), used as standard, to be 1,000 mcg/mg.

Bacillus subtilis = assay: Antimicrobial activity, agar plate-cylinder method; assay type: cell-based; settings: Cu-free form; bleomycin A2 (Cu-free form) standard assumed 1,000 mcg/mg
Method: (1) Antimicrobial activity against Mycobacterium smegmatis ATCC 697 and Bacillus subtilis.
as §1

Hela S3 cells = assay: Growth inhibitory activity against Hela S3 cells; assay type: cell-based; settings: Cu-free form; Hela S3, 3 days incubation with compound
Method: The percentage growth inhibition was calculated using the equation: […] wherein A is the ultimate number of cells on the third day from the addition of a test sample, B is the ultimate number of cells in the control (without the addition of test sample), and C is the number of cells on the day of addition of the test sample.

## Cc1c(N)nc(C(CC(N)=O)NCC(N)C(N)=O)nc1C(=O)NC(C(=O)NC(C)C(O)C(C)C(=O)NC(C(=O)NCCc1nc(-c2nc(C(=O)NCCCNC(C)c3ccccc3)cs2)cs1)C(C)O)C(OC1OC(CO)C(O)C(O)C1OC1OC(CO)C(O)C(OC(N)=O)C1O)c1c[nH]cn1 [PEP, 3-[(S)-1'-phenylethylamino]propylamino-bleomycin, reference compound]
ICR mice
  Grade of pulmonary fibrosis, %: 150%
  Incidence of pulmonary fibrosis, %: 75%
  Incidence: number of mice with pulmonary fibrosis/number of mice: 6/8
  Grade: total score of pulmonary fibrosis/total number of samples: 36/24

## Cc1c(N)nc(C(CC(N)=O)NCC(N)C(N)=O)nc1C(=O)NC(C(=O)NC(C)C(O)C(C)C(=O)NC(C(=O)NCCc1nc(-c2nc(C(=O)NCCCNCCCNC(C)c3ccccc3)cs2)cs1)C(C)O)C(OC1OC(CO)C(O)C(O)C1OC1OC(CO)C(O)C(OC(N)=O)C1O)c1cnc[nH]1 (stereo not drawn) [PEPP, 3-[3-(N-1-phenylethyl)aminopropyl]aminopropylamino-bleomycin, reference compound]
ICR mice
  Grade of pulmonary fibrosis, %: 56%
  Incidence of pulmonary fibrosis, %: 89%
  Incidence: number of mice with pulmonary fibrosis/number of mice: 8/9
  Grade: total score of pulmonary fibrosis/total number of samples: 15/27

## Cc1c(N)nc(C(CC(N)=O)NCC(N)C(N)=O)nc1C(=O)NC(C(=O)NC(C)C(O)C(C)C(=O)NC(C(=O)NCCc1nc(-c2nc(C(=O)NCCCN(C)CCCNCC3CCCC3)cs2)cs1)C(C)O)C(OC1OC(CO)C(O)C(O)C1OC1OC(CO)C(O)C(OC(N)=O)C1O)c1cnc[nH]1 (stereo not drawn) [compound 28, 3-{N--Methyl-N--[3'-(cyclopentylmethylamino)propyl]amino}propylaminoBLM]
[1]
  Antimicrobial potency of Cu--free compound, against Mycobacterium smegmatis ATCC 607: 13595 mcg potency per mg
Bacillus subtilis
  Antimicrobial potency of Cu--free compound, against Bacillus subtilis: 16180 mcg potency per mg
Hela S3 cells
  50% growth inhibition concentration (ID50) of Cu--free compound against cultured Hela cell: 1.00 µg/mL

## Cc1c(N)nc(C(CC(N)=O)NCC(N)C(N)=O)nc1C(=O)NC(C(=O)NC(C)C(O)C(C)C(=O)NC(C(=O)NCCc1nc(-c2nc(C(=O)NCCCN(C)CCCNCc3ccc([N+](=O)[O-])cc3)cs2)cs1)C(C)O)C(OC1OC(CO)C(O)C(O)C1OC1OC(CO)C(O)C(OC(N)=O)C1O)c1cnc[nH]1 (stereo not drawn) [MNBZ, 3-(N-methyl-N-3-p-nitro-benzylamino-propyl)aminopropylamino-bleomycin, reference compound]
ICR mice
  Grade of pulmonary fibrosis, %: 104%
  Incidence of pulmonary fibrosis, %: 89%
  Incidence: number of mice with pulmonary fibrosis/number of mice: 8/9
  Grade: total score of pulmonary fibrosis/total number of samples: 28/27

## Cc1c(N)nc(C(CC(N)=O)NCC(N)C(N)=O)nc1C(=O)NC(C(=O)NC(C)C(O)C(C)C(=O)NC(C(=O)NCCc1nc(-c2nc(C(=O)NCCCN(C)CCCNCCC3CCCCC3)cs2)cs1)C(C)O)C(OC1OC(CO)C(O)C(O)C1OC1OC(CO)C(O)C(OC(N)=O)C1O)c1cnc[nH]1 (stereo not drawn) [compound 30, 3-{N--Methyl-N--[3'-(cyclohexylethylamino)propyl]amino}propylaminoBLM]
[1]
  Antimicrobial potency of Cu--free compound, against Mycobacterium smegmatis ATCC 607: 35030 mcg potency per mg
Bacillus subtilis
  Antimicrobial potency of Cu--free compound, against Bacillus subtilis: 14440 mcg potency per mg
Hela S3 cells
  50% growth inhibition concentration (ID50) of Cu--free compound against cultured Hela cell: 0.56 µg/mL

## Cc1c(N)nc(C(CC(N)=O)NCC(N)C(N)=O)nc1C(=O)NC(C(=O)NC(C)C(O)C(C)C(=O)NC(C(=O)NCCc1nc(-c2nc(C(=O)NCCCN(C)CCCNCC3CCCCC3)cs2)cs1)C(C)O)C(OC1OC(CO)C(O)C(O)C1OC1OC(CO)C(O)C(OC(N)=O)C1O)c1cnc[nH]1 (stereo not drawn) [compound 29, 3-{N--Methyl-N--[3'-(cyclohexylmethylamino)propyl]amino}propylaminoBLM]
[1]
  Antimicrobial potency of Cu--free compound, against Mycobacterium smegmatis ATCC 607: 15414 mcg potency per mg
Bacillus subtilis
  Antimicrobial potency of Cu--free compound, against Bacillus subtilis: 12148 mcg potency per mg
Hela S3 cells
  50% growth inhibition concentration (ID50) of Cu--free compound against cultured Hela cell: 0.63 µg/mL
